Where a SMILES comes first, the peptide text is derived from it. [ ]: non-standard residue; d: D form. The star is where a group is joined. ξ: configuration not given here. Ala(6-(2-MePh)pyridin-3-yl) = Cc1ccccc1-c1ccc(C[C@H](N)C(=O)O)cn1; Phe(4-(2-Et-4-HO-Ph)) = CCc1cc(O)ccc1-c1ccc(C[C@H](N)C(=O)O)cc1; ξαMePhe(2-F) = CC(N)(Cc1ccccc1F)C(=O)O; ξαMeP = CC1(C(=O)O)CCCN1; Moc = COC(=O)*
Columns and labels:
[1] = Dog pharmacokinetic study; type: in vivo
Description: The pharmacokinetic parameters of the Compounds of SEQ ID NO: 9, 118, 151 and 158 were determined in male beagle dogs (n=3-4, 14±1 kg). Following an overnight fast, each animal received the Compounds of SEQ ID NO: 9, 118, 151 and 158 either as an intravenous bolus via femoral vein (67 μg/kg) or by subcutaneous injection given at near the shoulder blades (67 μg/kg). Each animal received both intravenous and subcutaneous doses with a one-week washout between doses following a crossover design. The dosing vehicle for both routes of administration was propylene glycol:pH 7.4 phosphate buffer (50:50) or 0.2 M Tris (pH 8.0). Serial blood samples were collected in EDTA-containing microcentrifuge tubes at predose, 0.083, 0.25, 0.5, 0.75, 1, 2, 4, 6, 8, 24, and 30 hours post-dose after intravenous administration; at predose, 0.25, 0.5, 0.75, 1, 2, 4, 6, 8, 24, and 30 hours post-dose after subcutaneous administration. Approximately 0.3 mL of blood was collected at each time point. Blood samples were immediately centrifuged at 4° C. The obtained plasma was frozen with dry ice and stored at −20° C. Plasma drug levels were determined using the LC-MS/MS assay described below.
Plasma samples from the in vivo dog study were prepared for analysis by precipitating plasma proteins with two volumes of AcCN containing an internal standard. The samples were vortex mixed and the precipitated proteins were removed by centrifugation. The resulting supernatants were transferred to a 96-well plate and 10 μL were injected for TFC-LC/MS/MS analysis.
The TFC-HPLC system (Cohesive TX-1 Flux, Aria 2300 System) consisted of a loading pump, an eluting pump, and a CTC PAL autosampler (Cohesive Technologies, Franklin, Mass.). The columns used were Phenomenex Synergi Fusion-RP (C18, 2.0×50 mm, 4μ) (Phenomenex, Torrance, Calif.) as the analytical column and Turbo-Flow (TF) HTLC Cyclone column (0.5×50 mm) (Cohesive Technologies, Franklin, Mass.) as the extraction column for on-line sample processing. The mobile phase A consisted of 10 mM ammonium formate and 0.1% formic acid in water and mobile phase B consisted of 0.1% formic acid in AcCN. Turbo-Flow Chromatography was used to obtain a cleaner sample. A rapid gradient elution was used for analyte separation. The samples were injected onto the Turbo-Flow HTLC Cyclone column and analytes were separated from biological fluid components with using 100% H2O at 1.5 mL/min. The TF column was back flushed and analytes were back eluted from the TF to HPLC analytical column using a ramp to 60% B over 2 min and held there for 30 seconds at 0.3 mL/min to separate and to elute the analytes from the HPLC column into the mass spectrometer. Both columns were washed for an additional minute and then both columns were re-equilibrated at initial conditions.
The HPLC was interfaced to a Sciex API 4000 mass spectrometer (Applied Biosystems, Foster City, Calif.) and was equipped with a TurboIonspray ionization source. Ultra high purity nitrogen was used as the nebulizing and turbo-gas. The temperature of turbo-gas was set at 300° C. and the interface heater was set at 60° C. Selected Reaction Monitoring (SRM) was used for data acquisition. Multiple charged ion species, i.e. (M+2H)^2+ for Compound of SEQ ID NO: 158 were selected in Q1 and were collisionally dissociated with high purity nitrogen at a pressure of 3.5×10^−3 torr in Q2 to form specific product ions which were subsequently monitored in Q3. The ion transitions and voltages are summarized below (Table 4).
The standard curve concentrations, ranging from 1 to 1000 nM, were analyzed in duplicate. The curves were fitted with a linear regression weighted by reciprocal concentration […]. Quality control (QC) samples, prepared in blank matrix at the same concentrations as the standards were also analyzed in each analytical set. […]

[2] = molecular target: T1, Human GLP-1 Receptor (Homo sapiens, UniProt P43220); test: Cyclic AMP determination in CHO cells expressing human GLP-1 receptor; type: cell-based
T1 construct: Full-length human glucagon-like peptide 1 receptor was stably expressed in CHO-K1 cells; expressed in transfected cells; host or cells: CHO-K1 (clone CHO-GLP1R-19)
T1 sequence (P43220 24-463): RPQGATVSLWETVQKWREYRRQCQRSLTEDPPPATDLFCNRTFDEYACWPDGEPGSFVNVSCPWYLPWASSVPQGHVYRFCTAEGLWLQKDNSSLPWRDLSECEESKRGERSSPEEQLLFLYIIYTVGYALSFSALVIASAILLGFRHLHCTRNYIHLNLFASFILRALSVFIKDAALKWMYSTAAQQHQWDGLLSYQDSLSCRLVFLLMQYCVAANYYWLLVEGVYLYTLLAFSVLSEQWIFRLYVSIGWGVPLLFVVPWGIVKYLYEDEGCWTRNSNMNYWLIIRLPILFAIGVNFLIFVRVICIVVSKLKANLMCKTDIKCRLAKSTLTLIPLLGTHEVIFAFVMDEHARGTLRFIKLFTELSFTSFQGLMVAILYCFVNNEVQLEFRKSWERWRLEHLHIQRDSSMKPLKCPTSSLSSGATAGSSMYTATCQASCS
Description: (§1) CHO-GLP-1R-19 cells (20,000 in 100 μl of media) were plated into each well of a 96-well tissue culture microtiter plate and incubated overnight in a 5% CO2 atmosphere at 37° C. On the day of the assay, cells were washed once with 100 μl of phosphate-buffered saline (PBS). A Biomek 2000 was used to serially dilute all peptides prior to beginning the assay. Serial dilutions were carried out in 100% DMSO.
(§2) 50 μl of each cAMP standard was added by hand and 70 μl of mix reagent (Amersham cAMP SPA kit) was added using the multidrop. […] This standard curve was used to convert CPM to pmol of cAMP.
(§3) Cell plates and peptide plates were loaded onto the Platemate. The media was aspirated from the wells and discarded. 100 uL per well of the peptide/buffer mixture were then added from the peptide plates to initiate the assay. After 30 min. of incubation the peptide/buffer was removed and 50 uL of the lysis reagent 1 solution was added per well. The plate was kept for one hour at RT or overnight if refrigerated and sealed.
(§4) Dose dependence for Compounds was determined at half-log concentrations in duplicate. […] A standard curve was determined using known amounts of cyclic AMP. […] The data were analyzed by nonlinear regression curve fitting (4 parameter sigmoidal dose-response curve) to determine the EC50 of the compounds.

[3] = molecular target: T2, Mouse GLP-1 Receptor (Mus musculus, UniProt O35659); test: Stimulation of cAMP synthesis in CHO cells expressing mouse GLP-1 receptor; type: cell-based
T2 construct: expressed in transfected cells; host or cells: CHO cells
T2 sequence (O35659 22-463): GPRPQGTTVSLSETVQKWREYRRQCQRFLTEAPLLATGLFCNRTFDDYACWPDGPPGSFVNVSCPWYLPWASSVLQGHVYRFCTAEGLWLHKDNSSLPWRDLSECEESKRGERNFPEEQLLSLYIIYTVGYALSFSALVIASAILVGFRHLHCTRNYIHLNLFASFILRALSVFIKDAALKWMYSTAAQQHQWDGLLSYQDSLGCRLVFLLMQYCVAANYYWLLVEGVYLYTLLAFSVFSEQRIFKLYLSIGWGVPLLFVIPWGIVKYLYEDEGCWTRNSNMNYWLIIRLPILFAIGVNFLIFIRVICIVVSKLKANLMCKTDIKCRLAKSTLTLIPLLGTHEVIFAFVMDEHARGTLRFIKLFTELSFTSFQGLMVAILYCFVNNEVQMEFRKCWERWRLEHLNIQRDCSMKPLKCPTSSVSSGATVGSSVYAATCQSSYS
Description: as §1, §2, §3, §4

[4] = system: ob/ob mice; test: Intraperitoneal glucose tolerance test (ipGTT) in ob/ob mice after sc injection; type: in vivo, mouse
Description: (§5) Peptides were dissolved in an appropriate vehicle at a concentration in nmol/ml equivalent to the dose that was to be administered in nmol/kg so that each mouse would receive the same volume/weight of dosing solution. Male C57BL/6-ob/ob mice (10 weeks old) were randomized into groups of 6 mice per group based on fed plasma glucose and body weight. After an overnight fast, mice were weighed and placed in the experimental lab. After 30 min in the environment, the mice were bled via tail tip at −30 min and immediately injected subcutaneously (sc) with vehicle or the peptide dissolved in vehicle (0.1 ml solution/100 g body weight). At time 0 the mice were bled and then injected intraperitoneally with 50% glucose (2 g/kg) to initiate the intraperitoneal glucose tolerance test (ipGTT). The mice were bled 30, 60, 120 and 180 min after the glucose injection. Blood samples were drawn into potassium EDTA, placed on ice during the study and subsequently centrifuged for 10 min at 3000 rpm at 4° C. Plasma samples were diluted 11-fold for glucose analysis in the Cobas System. Another 5 μl plasma sample was diluted 5-fold with 20 μl of Sample Diluent (Insulin ELISA assay kit, Crystal Chem. Inc.) and stored at −20° C. for subsequent analysis using the Ultra Sensitive Mouse Insulin ELISA kit (Crystal Chem Inc.).

[5] = Exposure during ipGTT in ob/ob mice; type: in vivo, mouse; settings: sc injection
Description: as §5

## CCc1cc(O)ccc1-c1ccc(C[C@H](NC(=O)[C@H](CC(=O)O)NC(=O)[C@H](CO)NC(=O)[C@@H](NC(=O)C(C)(Cc2ccccc2F)NC(=O)[C@@H](NC(=O)CNC(=O)[C@H](CCC(=O)O)NC(=O)C2(C)CCCN2C(=O)[C@H](Cc2c[nH]cn2)NC(=O)OC)[C@@H](C)O)[C@@H](C)O)C(=O)N[C@@H](Cc2ccc(-c3ccccc3C)nc2)C(N)=O)cc1 (some centres unmarked) [SEQ ID NO: 158] (Moc-H[ξαMeP]EGT[ξαMePhe(2-F)]TSD[Phe(4-(2-Et-4-HO-Ph))][Ala(6-(2-MePh)pyridin-3-yl)]-NH2)
[1]; dog, plasma, 67 ug/kg, male beagle dogs, intravenous 67 μg/kg, read-out: Vss
  Vd: 0.15 ± 0.02 L/kg
[1]; sc 67 μg/kg, vehicle 0.2 M Tris buffer (pH 8.0)
  Exposure in dogs (sc@67 μg/kg): 1467 nM·h
[2]
  EC50: 0.018 nM
[2]; CHO, percent of maximal GLP-1 stimulated activity, human GLP-1 receptor
  Emax: 101 ± 6.7%
[2]; human GLP-1 receptor
  Mean Hill: 1.5
[3]
  Mean Hill: 1.5
[3]; CHO, percent of maximal GLP-1 stimulated activity
  Emax: 101 ± 7.2%
[4]; 10 nmol/kg sc, ipGTT ob/ob mice
  plasma glucose AUC decreased: 66%
[4]; sc injection, plasma glucose AUC in ipGTT
  Potency in ob/ob mice ED50: ED50 = 2 nmoles/kg
[4]; sc, ipGTT ob/ob mice, 0 to 180 or 210 min
  effect on postprandial plasma glucose: statistically significant decrease
[5]
  Exposure/dose during ipGTT in ob/ob mice: 11 nM * h/nmol/kg

— US7960349B2 (Bristol-Myers Squibb Company, priority 2006, dated 2011)
